This note sets out measurements from patent US20260325533A1, “CDK INHIBITOR COMPOUNDS” (ALEKSIA THERAPEUTICS, INC., priority 2023, published 2026).

The structures appear in SMILES notation. Like-named read-outs stand apart in the source and are kept apart here. Bounds are passed on as bounds.

What all share (format): biochemical
For assay [1], the target named is CDK2/CCNE1 (Homo sapiens, UniProt P24941). Put plainly: CDK2 homogeneous time-resolved fluorescence (HTRF) kinase assay. Conditions: CDK2/CCNE. The method, boiled down: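 An HTRF format measures CDK2/CCNE1 (3 nM) phosphorylating a 4E-BP1 Thr37/46 peptide at high (1 mM) ATP. Reactions run one hour at 23 °C, then EDTA-quenched and probed with Eu-labelled phospho-specific antibody.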
In general terms: Time-resolved FRET reads energy transfer from a long-lived donor to a nearby acceptor.

Assay [2] has as its target CDK1/CCNB1 (Homo sapiens, UniProt P06493). Put plainly: CDK1 homogeneous time-resolved fluorescence (HTRF) kinase assay. The note with it: CDK1/CCNB; x = IC50 >250 nM; read-out: CDK1/CCNB IC50 (>250 nM column). The method, boiled down:
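HTRF assay with 0.5 nM CDK1/CCNB1, 1 mM ATP, 50 nM ULight-eIF4E-BP1 (Thr37/46) peptide; compound preincubated 20 min, reaction 60 min at 23 °C, EDTA stop, Eu-anti-phospho antibody detection. 11-point half-log titration from 10 μM, 1% DMSO; IC50 from 665 nm or 665/615 signal.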

For assay [3], the target named is CDK4/CCND3 (Homo sapiens, UniProt P11802). Briefly: CDK4 homogeneous time-resolved fluorescence (HTRF) kinase assay. Conditions: CDK4/CCND. The gist of the method: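 IC50s derive from Lance 665 nm or 665/615 nm signals in 11-point, half-log dose series (top 10 μM, 1% DMSO). The enzyme, 1.5 nM CDK4/CCND3, phosphorylates 50 nM ULight-4E-BP1 peptide with 1 mM ATP over 60 min at 23 °C.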

For assay [4], the target named is CDK6/CCND1 (Homo sapiens, UniProt Q00534). Briefly: CDK6 homogeneous time-resolved fluorescence (HTRF) kinase assay. The note with it: CDK6/CCND. The gist of the method: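 Assay conditions: HEPES buffer containing 10 mM MgCl2, 1 mM EGTA, 2 mM DTT, 0.01% Tween 20; 1 nM CDK6/CCND1, 50 nM peptide substrate, 1 mM ATP. Detection after 60 min reaction used 2 nM europium antibody with 340 nm excitation. Potency fitted from half-log series, 11 points.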

The mark [5] stands for this setting: x = IC50 25-250 nM, read-out: CDK2/CCNE IC50 (25-250 nM).
Setting [6] is: x = IC50 >250 nM, read-out: CDK4/CCND IC50 (>250 nM column).
The mark [7] stands for this setting: x = IC50 >250 nM, read-out: CDK6/CCND IC50 (>250 nM column).
Where [8] appears, read: x = IC50 <25 nM, read-out: CDK2/CCNE IC50 (<25 nM).
The mark [9] stands for this setting: x = IC50 25-250 nM, read-out: CDK6/CCND IC50 (25-250 nM).

Sequence of CDK6/CCND1 (Q00534 whole entry): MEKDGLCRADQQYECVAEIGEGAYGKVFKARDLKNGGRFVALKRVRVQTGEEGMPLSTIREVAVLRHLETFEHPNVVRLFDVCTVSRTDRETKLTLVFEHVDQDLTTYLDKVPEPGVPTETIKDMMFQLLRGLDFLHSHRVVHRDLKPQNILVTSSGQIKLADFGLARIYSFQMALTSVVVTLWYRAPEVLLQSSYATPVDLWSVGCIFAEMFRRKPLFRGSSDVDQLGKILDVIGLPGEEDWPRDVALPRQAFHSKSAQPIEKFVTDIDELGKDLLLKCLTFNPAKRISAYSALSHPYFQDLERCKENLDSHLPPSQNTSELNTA
Sequence of CDK6/CCND1 (P24385 whole entry partner): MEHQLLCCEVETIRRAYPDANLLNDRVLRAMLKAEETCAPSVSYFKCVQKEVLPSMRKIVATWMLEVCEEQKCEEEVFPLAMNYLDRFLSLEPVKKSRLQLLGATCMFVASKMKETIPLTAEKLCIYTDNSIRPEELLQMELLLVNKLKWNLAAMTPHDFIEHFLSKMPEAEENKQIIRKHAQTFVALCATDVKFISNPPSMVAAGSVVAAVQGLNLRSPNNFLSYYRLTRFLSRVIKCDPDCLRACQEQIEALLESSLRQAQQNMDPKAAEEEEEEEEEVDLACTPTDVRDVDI
Sequence of CDK1/CCNB1 (P06493 whole entry): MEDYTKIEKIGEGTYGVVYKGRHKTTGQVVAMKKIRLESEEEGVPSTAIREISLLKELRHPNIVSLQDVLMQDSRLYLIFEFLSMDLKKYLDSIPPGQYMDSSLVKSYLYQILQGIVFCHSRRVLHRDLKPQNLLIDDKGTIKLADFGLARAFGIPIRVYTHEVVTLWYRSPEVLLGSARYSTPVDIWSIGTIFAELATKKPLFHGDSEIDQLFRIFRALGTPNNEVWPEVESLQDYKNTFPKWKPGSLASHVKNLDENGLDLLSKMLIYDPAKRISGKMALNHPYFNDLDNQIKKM
Sequence of CDK1/CCNB1 (P14635 whole entry partner): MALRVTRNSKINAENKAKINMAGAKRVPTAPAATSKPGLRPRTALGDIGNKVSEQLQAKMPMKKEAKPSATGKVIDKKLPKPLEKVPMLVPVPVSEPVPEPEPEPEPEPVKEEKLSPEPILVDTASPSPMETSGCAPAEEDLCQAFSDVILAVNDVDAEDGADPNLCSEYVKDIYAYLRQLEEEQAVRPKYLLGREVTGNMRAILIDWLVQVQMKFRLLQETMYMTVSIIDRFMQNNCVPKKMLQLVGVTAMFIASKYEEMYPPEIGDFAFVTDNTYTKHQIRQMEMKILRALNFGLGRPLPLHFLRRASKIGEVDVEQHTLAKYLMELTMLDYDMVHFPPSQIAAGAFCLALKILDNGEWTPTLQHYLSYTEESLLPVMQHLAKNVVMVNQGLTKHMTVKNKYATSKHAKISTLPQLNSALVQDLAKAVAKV
Sequence of CDK4/CCND3 (P11802 whole entry): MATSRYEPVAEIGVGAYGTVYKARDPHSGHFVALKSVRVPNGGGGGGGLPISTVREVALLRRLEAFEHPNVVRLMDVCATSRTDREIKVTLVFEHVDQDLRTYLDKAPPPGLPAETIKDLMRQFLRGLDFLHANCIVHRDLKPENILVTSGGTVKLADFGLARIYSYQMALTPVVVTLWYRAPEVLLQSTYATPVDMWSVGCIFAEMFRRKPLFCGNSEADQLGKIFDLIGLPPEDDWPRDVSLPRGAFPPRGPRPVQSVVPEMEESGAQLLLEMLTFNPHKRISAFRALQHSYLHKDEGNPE
Sequence of CDK4/CCND3 (P30281 whole entry partner): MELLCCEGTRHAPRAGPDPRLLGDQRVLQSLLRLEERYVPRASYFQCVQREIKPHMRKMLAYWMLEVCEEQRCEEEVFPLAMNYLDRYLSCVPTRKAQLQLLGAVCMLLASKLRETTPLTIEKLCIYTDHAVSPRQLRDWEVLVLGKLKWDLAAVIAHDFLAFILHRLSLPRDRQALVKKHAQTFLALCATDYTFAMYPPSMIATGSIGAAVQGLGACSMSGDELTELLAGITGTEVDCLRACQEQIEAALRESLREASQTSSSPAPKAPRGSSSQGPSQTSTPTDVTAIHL

For the compound `Cc1cc2[nH]ncc2cc1-c1nccc2cnc(Nc3ccc(S(C)(=O)=O)cc3)cc12` [Ex 597, 5-(6-methyl-1H-indazol-5-yl)-N-(4-(methylsulfonyl)phenyl)-2,6-naphthyridin-3-amine], the IC50 in assay [1] (setting [5]) is 25 to 250 nM; in assay [2], greater than 250 nM; in assay [3] (setting [6]), greater than 250 nM; in assay [4] (setting [7]), greater than 250 nM.

In the case of `CS(=O)(=O)c1ccc(Nc2cc3c(C#Cc4cccnc4N)nccc3cn2)cc1` [Ex 598, 5-((2-aminopyridin-3-yl)ethynyl)-N-(4-(methylsulfonyl)phenyl)-2,6-naphthyridin-3-amine], the IC50 in assay [1] (setting [8]) was less than 25 nM; in assay [2], greater than 250 nM; in assay [3] (setting [6]), greater than 250 nM; in assay [4] (setting [7]), greater than 250 nM.

As for `CS(=O)(=O)c1ccc(Nc2cc3c(-c4ccc5c(c4)C(=O)C(=O)N5)nccc3cn2)cc1` [Ex 600, 5-(7-((4-(methylsulfonyl)phenyl)amino)-2,6-naphthyridin-1-yl)indoline-2,3-dione], the IC50 in assay [1] (setting [8]) was less than 25 nM; in assay [2] it was greater than 250 nM; in assay [3] (setting [6]) it was greater than 250 nM; in assay [4] (setting [9]) it was 25 to 250 nM.

For the compound `CS(=O)(=O)c1ccc(Nc2cc3c(-c4ccc5[nH]ncc5c4)nccc3cn2)cc1` [Ex 601, 5-(1H-indazol-5-yl)-N-(4-(methylsulfonyl)phenyl)-2,6-naphthyridin-3-amine], the IC50 in assay [1] (setting [5]) was 25 to 250 nM; in assay [2], greater than 250 nM; in assay [3] (setting [6]), greater than 250 nM; in assay [4] (setting [7]) it was greater than 250 nM.

For the compound `CS(=O)(=O)c1ccc(Nc2cc3c(C#Cc4ccc(O)cc4F)nccc3cn2)cc1` [Ex 602, 3-fluoro-4-((7-((4-(methylsulfonyl)phenyl)amino)-2,6-naphthyridin-1-yl)ethynyl)phenol], the IC50 in assay [1] (setting [8]) is less than 25 nM; in assay [2], greater than 250 nM; in assay [3] (setting [6]), greater than 250 nM; in assay [4] (setting [7]), greater than 250 nM.

As for `CS(=O)(=O)c1ccc(Nc2cc3c(C#Cc4ccc5ncoc5c4)nccc3cn2)cc1` [Ex 604, 5-(benzo[d]oxazol-6-ylethynyl)-N-(4-(methylsulfonyl)phenyl)-2,6-naphthyridin-3-amine], the IC50 is 25 to 250 nM in assay [1] (setting [5]), greater than 250 nM in assay [2], greater than 250 nM in assay [3] (setting [6]) and greater than 250 nM in assay [4] (setting [7]).

As for `COC(=O)c1n[nH]c2cc(-c3nccc4cnc(Nc5ccc(S(C)(=O)=O)cc5)cc34)ccc12` [Ex 605, methyl 6-(7-((4-(methylsulfonyl)phenyl)amino)-2,6-naphthyridin-1-yl)-1H-indazole-3-carboxylate], the IC50 in assay [1] (setting [8]) is less than 25 nM; in assay [2] it was greater than 250 nM; in assay [3] (setting [6]), greater than 250 nM; in assay [4] (setting [9]), 25 to 250 nM.

For `CS(=O)(=O)c1ccc(Nc2cc3c(C#CC4CCN(CC(=O)O)CC4)nccc3cn2)cc1` [Ex 609, 2-(4-((7-((4-(methylsulfonyl)phenyl)amino)-2,6-naphthyridin-1-yl)ethynyl)piperidin-1-yl)acetic acid], the IC50 in assay [1] (setting [8]) is less than 25 nM; in assay [2] it was greater than 250 nM; in assay [3] (setting [6]), greater than 250 nM; in assay [4] (setting [7]), greater than 250 nM.

Consider `Cc1c(-c2nccc3cnc(Nc4ccc(S(C)(=O)=O)cc4)cc23)ccc2c1cnn2C(C)(C)C(N)=O` [Ex 610, 2-methyl-2-(4-methyl-5-(7-((4-(methylsulfonyl)phenyl)amino)-2,6-naphthyridin-1-yl)-1H-indazol-1-yl)propanamide], for which the IC50 in assay [1] (setting [5]) is 25 to 250 nM; in assay [2], greater than 250 nM; in assay [3] (setting [6]), greater than 250 nM; in assay [4] (setting [7]) it was greater than 250 nM.

Take `CS(=O)(=O)c1ccc(Nc2cc3c(C#Cc4cncc5[nH]ncc45)nccc3cn2)cc1` [Ex 611, 5-((1H-pyrazolo[3,4-c]pyridin-4-yl)ethynyl)-N-(4-(methylsulfonyl)phenyl)-2,6-naphthyridin-3-amine]: the IC50 in assay [1] (setting [5]) was 25 to 250 nM; in assay [2], greater than 250 nM; in assay [3] (setting [6]) it was greater than 250 nM; in assay [4] (setting [7]), greater than 250 nM.

Take `CS(=O)(=O)c1ccc(Nc2cc3c(C#Cc4cc(Cl)n[nH]c4=O)nccc3cn2)cc1` [Ex 612, 6-chloro-4-((7-((4-(methylsulfonyl)phenyl)amino)-2,6-naphthyridin-1-yl)ethynyl)pyridazin-3(2H)-one]: the IC50 in assay [1] (setting [5]) is 25 to 250 nM; in assay [2], greater than 250 nM; in assay [3] (setting [6]) it was greater than 250 nM; in assay [4] (setting [7]), greater than 250 nM.

As to `CS(=O)(=O)c1ccc(Nc2cc3c(C#Cc4cnc(N)nn4)nccc3cn2)cc1` [Ex 613, 5-((3-amino-1,2,4-triazin-6-yl)ethynyl)-N-(4-(methylsulfonyl)phenyl)-2,6-naphthyridin-3-amine], the IC50 was 25 to 250 nM in assay [1] (setting [5]), greater than 250 nM in assay [2], greater than 250 nM in assay [3] (setting [6]) and greater than 250 nM in assay [4] (setting [7]).

As for `Cc1c(-c2nccc3cnc(Nc4ccc(S(C)(=O)=O)c(O)c4)cc23)ccc2c1cnn2CCO` [Ex 616, 5-((5-(1-(2-hydroxyethyl)-4-methyl-1H-indazol-5-yl)-2,6-naphthyridin-3-yl)amino)-2-(methylsulfonyl)phenol], the IC50 in assay [1] (setting [8]) was less than 25 nM; in assay [2], greater than 250 nM; in assay [3] (x = IC50 25-250 nM, read-out: CDK4/CCND IC50 (25-250 nM)), 25 to 250 nM; in assay [4] (setting [9]) it was 25 to 250 nM.

As for `COc1cc(Nc2cc3c(-c4ccc5c(cnn5CCO)c4C)nccc3cn2)ccc1S(C)(=O)=O` [Ex 617, 2-(5-(7-((3-methoxy-4-(methylsulfonyl)phenyl)amino)-2,6-naphthyridin-1-yl)-4-methyl-1H-indazol-1-yl)ethan-1-ol], the IC50 in assay [1] (setting [5]) is 25 to 250 nM; in assay [2], greater than 250 nM; in assay [3] (setting [6]), greater than 250 nM; in assay [4] (setting [7]), greater than 250 nM.

`CS(=O)(=O)c1ccc(Nc2cc3c(C#Cc4ccc(=O)[nH]n4)nccc3cn2)cc1` [Ex 618, 6-((7-((4-(methylsulfonyl)phenyl)amino)-2,6-naphthyridin-1-yl)ethynyl)pyridazin-3(2H)-one]: the IC50 in assay [1] (setting [8]) is less than 25 nM; in assay [2] it was greater than 250 nM; in assay [3] (setting [6]), greater than 250 nM; in assay [4] (setting [7]), greater than 250 nM.

As for `CS(=O)(=O)c1ccc(Nc2cc3c(C#Cc4ccc(CC#N)cc4)nccc3cn2)cc1` [Ex 620, 2-(4-((7-((4-(methylsulfonyl)phenyl)amino)-2,6-naphthyridin-1-yl)ethynyl)phenyl)acetonitrile], the IC50 was 25 to 250 nM in assay [1] (setting [5]), greater than 250 nM in assay [2], greater than 250 nM in assay [3] (setting [6]) and greater than 250 nM in assay [4] (setting [7]).

In the case of `CS(=O)(=O)c1ccc(Nc2cc3c(C#Cc4cccc5cn[nH]c45)nccc3cn2)cc1` [Ex 621, 5-((1H-indazol-7-yl)ethynyl)-N-(4-(methylsulfonyl)phenyl)-2,6-naphthyridin-3-amine], the IC50 in assay [1] (setting [5]) is 25 to 250 nM; in assay [2] it was greater than 250 nM; in assay [3] (setting [6]) it was greater than 250 nM; in assay [4] (setting [7]), greater than 250 nM.

For the compound `CS(=O)(=O)c1ccc(Nc2cc3c(C#Cc4cnc(N)cn4)nccc3cn2)cc1` [Ex 622, 5-((5-aminopyrazin-2-yl)ethynyl)-N-(4-(methylsulfonyl)phenyl)-2,6-naphthyridin-3-amine], the IC50 is 25 to 250 nM in assay [1] (setting [5]), greater than 250 nM in assay [2], greater than 250 nM in assay [3] (setting [6]) and greater than 250 nM in assay [4] (setting [7]).

Consider `CS(=O)(=O)c1ccc(Nc2cc3c(C#Cc4cccnc4)nccc3cn2)cc1` [Ex 623, N-(4-(methylsulfonyl)phenyl)-5-(pyridin-3-ylethynyl)-2,6-naphthyridin-3-amine], for which the IC50 in assay [1] (setting [5]) is 25 to 250 nM; in assay [2] it was greater than 250 nM; in assay [3] (setting [6]) it was greater than 250 nM; in assay [4] (setting [7]), greater than 250 nM.

`CN1Cc2cc(-c3nccc4cnc(Nc5ccc(S(C)(=O)=O)cc5)cc34)ccc2C1=O` [Ex 624, 2-methyl-5-(7-((4-(methylsulfonyl)phenyl)amino)-2,6-naphthyridin-1-yl)isoindolin-1-one]: the IC50 was 25 to 250 nM in assay [1] (setting [5]), greater than 250 nM in assay [2], greater than 250 nM in assay [3] (setting [6]) and greater than 250 nM in assay [4] (setting [7]).

Regarding `CS(=O)(=O)c1ccc(Nc2cc3c(C#Cc4ccc(O)cn4)nccc3cn2)cc1` [Ex 627, 6-((7-((4-(methylsulfonyl)phenyl)amino)-2,6-naphthyridin-1-yl)ethynyl)pyridin-3-ol], the IC50 was 25 to 250 nM in assay [1] (setting [5]), greater than 250 nM in assay [2], greater than 250 nM in assay [3] (setting [6]) and greater than 250 nM in assay [4] (setting [7]).
